We go through 6 compounds from article PMC5618429, “Kempopeptin C, a Novel Marine-Derived Serine Protease Inhibitor Targeting Invasive Breast Cancer” (Marine Drugs, 2017).

Read-outs that look alike come from different tables or passages of the source. Bounds are passed on as bounds.

As a reminder, the IC50 is the concentration needed to halve the response being measured. Broadly, the viability is a read-out of living cells in per cent, often relative to untreated cells. The low end stands for a greater loss of cells, the high end for better survival.

Series [1] deals with T1, trypsin from porcine pancreas (Sus scrofa, UniProt P00761).
T1 construct: purchased Sigma T0303; host or cells: porcine pancreas
T1 sequence (P00761 9-231): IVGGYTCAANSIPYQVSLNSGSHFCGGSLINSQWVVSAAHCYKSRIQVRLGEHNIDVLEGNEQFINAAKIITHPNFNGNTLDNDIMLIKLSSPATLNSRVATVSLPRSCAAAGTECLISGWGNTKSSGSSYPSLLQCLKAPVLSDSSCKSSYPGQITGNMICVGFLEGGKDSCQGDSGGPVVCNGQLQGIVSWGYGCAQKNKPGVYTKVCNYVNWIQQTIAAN
As to the kind of experiment: Trypsin inhibition assay. Conditions: mean ± SD, n = 3; 30-min preincubation; read-out: IC50 against trypsin. The format is biochemical. Here is the method:
The trypsin inhibition assay was carried out at room temperature by incubating 10 µL of trypsin from porcine pancreas (T0303, Sigma, St. Louis, MO, USA) (100 µM prepared in assay buffer) with 39 µL of assay buffer (50 mM Tris-HCl, 100 mM NaCl, 1 mM CaCl2; pH 7.8) in the presence of 1 µL of different concentrations of inhibitors (2 and 3; half log dilutions prepared in DMSO) or the solvent control. After a 30-min incubation time, 50 µL of the 1.5 mM substrate: Nα-benzoyl-DL-arginine-4-nitroanilide (prepared as 2 mM stock solution in DMF and further diluted to 1.5 mM in assay buffer) were added to each well. The reaction was monitored by measuring the absorbance at 405 nm every 30 s for 30 min using SpectraMax M5 plate reader (Molecular Devices, Sunnyvale, CA, USA).

Series [2] deals with T2, plasmin from human plasma (Homo sapiens, UniProt P00747).
T2 construct: purchased Sigma P1867; host or cells: human plasma
T2 sequence (P00747 581-810 limits assumed): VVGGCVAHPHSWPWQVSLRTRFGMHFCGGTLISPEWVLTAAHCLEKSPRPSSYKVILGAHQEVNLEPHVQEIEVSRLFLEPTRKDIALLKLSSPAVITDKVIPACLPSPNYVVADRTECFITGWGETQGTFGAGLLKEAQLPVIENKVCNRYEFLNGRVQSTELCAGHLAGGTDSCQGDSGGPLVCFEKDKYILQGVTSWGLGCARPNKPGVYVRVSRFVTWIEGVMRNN
T2 sequence (P00747 98-580 partner limits assumed): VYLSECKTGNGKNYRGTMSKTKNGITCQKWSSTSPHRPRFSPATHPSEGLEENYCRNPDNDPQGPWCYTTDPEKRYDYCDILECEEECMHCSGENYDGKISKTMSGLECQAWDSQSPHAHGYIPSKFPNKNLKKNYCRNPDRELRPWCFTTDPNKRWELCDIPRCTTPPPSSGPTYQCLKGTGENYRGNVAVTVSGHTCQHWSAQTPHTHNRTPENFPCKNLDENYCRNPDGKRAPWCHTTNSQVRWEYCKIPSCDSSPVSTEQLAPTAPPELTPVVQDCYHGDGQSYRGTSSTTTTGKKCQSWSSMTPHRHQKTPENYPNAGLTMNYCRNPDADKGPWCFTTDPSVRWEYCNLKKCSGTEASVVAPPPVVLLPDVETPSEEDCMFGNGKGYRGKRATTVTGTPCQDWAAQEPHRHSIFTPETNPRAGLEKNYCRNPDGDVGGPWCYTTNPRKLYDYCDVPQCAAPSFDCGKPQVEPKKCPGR
As to the kind of experiment: Plasmin inhibition assay. The format is biochemical. Conditions: mean ± SD, n = 3; 30-min preincubation; read-out: IC50 against plasmin. Here is the method: The plasmin inhibition assay was carried out by incubating 5 µL of […] plasmin from human plasma (P1867, Sigma, St. Louis, MO, USA) with 1 µL of different concentrations of inhibitors (2 and 3; half log dilutions prepared in DMSO) or the solvent control in the presence of 89 µL assay buffer (0.05 M Tris-HCl, pH 8.9). After a 30-min incubation time, 5 µL of 1.7 mM substrate solution (N-p-Tosyl-D-Gly-Pro-Lys-4-nitroanilide acetate salt; prepared in assay buffer) were added to each well. The reaction was monitored by measuring the absorbance at 405 nm every 30 s for 30 min using the SpectraMax M5 plate reader (Molecular Devices).

Series [3] has as its target T3, recombinant human matriptase (Homo sapiens, UniProt Q9Y5Y6).
T3 construct: purchased R&D Systems 3946-SE-010
T3 sequence (Q9Y5Y6 615-855 limits assumed): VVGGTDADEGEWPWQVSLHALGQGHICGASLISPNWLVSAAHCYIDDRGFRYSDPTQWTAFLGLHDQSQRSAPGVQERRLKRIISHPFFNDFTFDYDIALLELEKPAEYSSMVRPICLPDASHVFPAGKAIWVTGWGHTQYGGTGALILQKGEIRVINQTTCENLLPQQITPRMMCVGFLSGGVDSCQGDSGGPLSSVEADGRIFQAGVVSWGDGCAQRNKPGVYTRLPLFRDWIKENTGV
As to the kind of experiment: Matriptase inhibition assay. The format is biochemical. The settings on record: mean ± SD, n = 3; 15-min preincubation; read-out: IC50 against matriptase. Here is the method:
In matriptase inhibition assay, 50 µL of recombinant human matriptase (R&D Systems, Minneapolis, MN, USA; 3946-SE-010) ([…] prepared in assay buffer: 50 mM Tris, 50 mM NaCl, 0.01% Tween 20; pH 9.0) and 1 µL of different concentrations of inhibitors (2 and 3; half log dilutions prepared in DMSO) or the solvent control were pre-incubated at room temperature for 15 min. Following the incubation period, 50 µL of the 50 µM substrate solution (Boc-Gln-Ala-Arg-AMC) (R&D Systems, Minneapolis, MN, USA; ES014) were added to each well, and the enzyme activity was monitored by measuring the increase in fluorescence signal from the fluorescently-labeled substrate every 30 s for 30 min (Ex 380 nm, Em 460 nm) using the SpectraMax M5 plate reader (Molecular Devices).

Series [4] is described as follows: Cell viability assay (MTT). The format is cell-based. Conditions: human, MDA-MB-231 breast cancer cells; MDA-MB-231, 48 h, all concentrations tested (32 µM to 320 pM). The method, then:
MDA-MB-231 cells were seeded in 96-well plates (10,000 cells/well). After 24 h of incubation, the cells were treated with different concentrations of kempopeptins B or C (2 or 3) or the solvent control (DMSO). Following 48 h of incubation, cell viability was measured using 3-(4,5-dimethylthiazol-2-yl)-2,5-diphenyltetrazolium bromide according to the manufacturer's instructions (Promega, Madison, WI, USA).
Effect of kempopeptins on the viability of MDA-MB-231 cells
Kempopeptin C Kempopeptin B
Figure S1. Effect of kempopeptins B and C (2) and (3) on the viability of MDA -MB-231 breast cancer cells.

The subject of series [5] is CDCP1 cleavage in MDA-MB-231 cells. As to the kind of experiment: Cleavage of CDCP1 in MDA-MB-231 cells (Western blot). The format is cell-based. The settings on record: 72 h, different concentrations. The method, then:
The experiment was performed by treating MDA-MB-231 cells with different concentrations of either kempopeptin B (2) or C (3) for 72 h (Figure 6A). Dexamethasone (Dex) 100 nM was used as a positive control.
Figure 6 The effect of kempopeptins B and C (2 and 3) on CDCP1 cleavage in MDA-MB-231. (A) MDA-MB-231 cells were treated for 72 h with different concentrations of the test compounds. Following 72 h, the lysates were collected and analyzed by Western blot. (B) MDA-MB-231 cells were treated at different time points with 100 µM of kempopeptin C (3). Following 6 h, 12 h and 24 h, the lysates were collected and analyzed by Western blot. Dexamethasone (Dex) was used as a positive control. (C) MDA-MB-231 cells treated for 24 h with different concentrations of 3 in the presence of 10 nM recombinant human matriptase. Cell lysates were harvested and analyzed by Western blot. (D) Densitometric analysis of the full-length, LMW of CDCP1 and actin bands in (C).
MDA-MB-231 cells (150,000 cells/well) were seeded in 12-well plates. After 24 h, the media were replaced, and cells were treated with different concentrations of inhibitors (2 or 3; prepared in DMSO), the solvent control or the positive control dexamethasone. Whole-cell protein lysates were collected after 6, 12, 24 and 72 h using PhosphoSafe lysis buffer (Novagen, Madison, USA) and the protein concentration measured using the BCA Protein Assay kit (Pierce; 23227; Thermofisher Scientific; Waltham, MA, USA). Twenty micrograms of protein were separated by SDS-PAGE, transferred to polyvinylidene difluoride (PVDF) membranes, probed with CDCP1 antibody (Cell Signaling; 4115S) and detected with SuperSignal West Femto Maximum Sensitivity Substrate (Pierce).
For orientation: In western blotting, separated proteins are transferred to a membrane and probed.

A further series deals with elastase. Details: method as in PMID 18693761. Conditions: cited from earlier work.
The test system of a further series is chymotrypsin. On the set-up: method as in PMID 18693761. Conditions: cited from earlier work.
The next series deals with trypsin. The settings on record: read-out: IC50 trypsin inhibition; cited from earlier work.
In series [6] the test system is CDCP1 cleavage in MDA-MB-231 cells. Details: method as in PMID 22543582. The settings on record: positive control, through upregulation of PAI-1; cited from earlier work.
The test system of the next series is plasmin. Details: method as in PMID 20405925. Conditions: read-out: IC50 plasmin inhibition; cited from earlier work.

Regarding `CCCC(=O)N[C@H](C(=O)N[C@@H]1C(=O)N[C@@H](CCCCN)C(=O)N[C@H]2CC[C@@H](O)N(C2=O)[C@@H]([C@@H](C)CC)C(=O)N(C)[C@@H](Cc2ccc(OC)c(Br)c2)C(=O)N[C@@H](C(C)C)C(=O)O[C@@H]1C)C(C)C` [Kempopeptin B, kempopeptin B], the IC50 in series [1] is 1490 ± 180 nM; in [2], 1050 ± 190 nM; in series [3], 1830 ± 190 nM; on elastase (read-out: IC50 against elastase), over 67000 nM; in the series with chymotrypsin (read-out: IC50 against chymotrypsin) it was over 67000 nM. This compound displayed a viability at 48 h in series [4] of over 90%. Also, the “Inhibition of CDCP1 cleavage in MDA-MB-231” value in series [5] was “No inhibition of CDCP1 cleavage was observed”.
Turning to `CCCC(=O)N[C@@H](CCC(N)=O)C(=O)N[C@@H]1C(=O)N[C@@H](CCCNC(N)=O)C(=O)N[C@H]2CC[C@@H](O)N(C2=O)[C@@H]([C@@H](C)CC)C(=O)N(C)[C@@H](Cc2ccc(OC)c(Br)c2)C(=O)N[C@@H](C(C)C)C(=O)O[C@@H]1C` [Symplocamide A, symplocamide A], in the series on trypsin, the IC50 was about 80000 nM.
Regarding `CC(=O)N1CCC[C@H]1C(=O)N[C@H](C(=O)N[C@@H]1C(=O)N[C@@H](CC(C)C)C(=O)N[C@H]2CC[C@@H](O)N(C2=O)[C@@H](Cc2ccccc2)C(=O)N(C)[C@@H](Cc2ccc(O)cc2)C(=O)N[C@@H](C(C)C)C(=O)O[C@@H]1C)[C@@H](C)O` [Kempopeptin A, kempopeptin A], the IC50 is 320 nM on elastase (read-out: IC50 elastase inhibition) and 2600 nM in the series on chymotrypsin (read-out: IC50 chymotrypsin inhibition).
As for `C[C@@H]1C[C@H]2[C@@H]3CCC4=CC(=O)C=C[C@]4(C)[C@@]3(F)[C@@H](O)C[C@]2(C)[C@@]1(O)C(=O)CO` [Dexamethasone], the “Effect on cleavage of full-length CDCP1” value in series [6] was “blocks the cleavage of the full-length CDCP1”.
As for `CC(C)C[C@@H](NC(=O)[C@H](O)COS(=O)(=O)O)C(=O)N[C@@H]1C(=O)N[C@@H](CCCNC(=N)N)C(=O)N[C@H]2CC[C@@H](O)N(C2=O)[C@@H](CC(C)C)C(=O)N(C)[C@@H](Cc2ccc(O)cc2)C(=O)N[C@@H](C(C)C)C(=O)O[C@@H]1C` [Compound A90720A, A90720A], the IC50 with trypsin is about 10 nM.
Consider `CCCCCC(=O)N[C@@H](CCC(=O)O)C(=O)N[C@@H]1C(=O)N[C@@H](CCCNC(=N)N)C(=O)N[C@H]2CC[C@@H](O)N(C2=O)[C@@H](Cc2ccccc2)C(=O)N(C)[C@@H](Cc2ccc(O)cc2)C(=O)N[C@@H](C(C)C)C(=O)O[C@@H]1C` [Cyanopeptolin 1020, cyanopeptolin 1020], for which the figures for the IC50 with trypsin and in the series on plasmin were 0.67 nM and about 490 nM, respectively.
